Source: article PMC9841532, “Exploring the Effect of Halogenation in a Series of Potent and Selective A2B Adenosine Receptor Antagonists” (Journal of Medicinal Chemistry, 2022)

target: T1, hA1AR (Homo sapiens, UniProt P30542); assay: Radioligand binding competition, [3H]DPCPX, membranes from CHO-A1 cells; details: 1 μM, [3H]DPCPX, human CHO cells, n = 2
T1 sequence (P30542 1-326): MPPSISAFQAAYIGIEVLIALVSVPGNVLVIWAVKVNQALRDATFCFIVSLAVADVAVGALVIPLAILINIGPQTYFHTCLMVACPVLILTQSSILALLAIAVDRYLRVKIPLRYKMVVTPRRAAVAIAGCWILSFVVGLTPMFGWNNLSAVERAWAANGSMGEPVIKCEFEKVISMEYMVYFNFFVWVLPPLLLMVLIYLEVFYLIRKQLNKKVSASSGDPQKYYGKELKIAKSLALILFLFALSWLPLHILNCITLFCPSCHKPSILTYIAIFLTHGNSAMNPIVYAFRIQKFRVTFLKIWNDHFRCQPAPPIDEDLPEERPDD
In short: (§1)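 Racemates, plus selected enantiomers after chiral resolution, were tested at 25 °C, with a 60 min incubation for one subtype and 30 min for others. Non-specific binding was defined with 10 μM or 100 μM R-PIA. Bound radioactivity was counted after washing and filtration.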

SMILES	% at 1 μM hA1 (percentage displacement of specific binding) [%]
CCOC(=O)C1=C(C)Nc2nc3cc(Cl)ccc3n2[C@@H]1c1cocn1 [(S)-18c]	22
CC1=C(C(=O)OC(C)C)[C@@H](c2ccco2)n2c(nc3ccccc32)N1 [(S)-ISAM-140]	2

Second part, the compound after the results:

% at 1 μM hA1 (percentage displacement of specific binding) [%]	SMILES
48	CC1=C(C(=O)OC(C)C)[C@@H](c2ccco2)n2c(nc3cc(Cl)ccc32)N1 [(S)-16j]
24	CC1=C(C(=O)OC(C)C)[C@H](c2ccoc2)n2c(nc3cc(Cl)ccc32)N1 [(S)-16l]
11	CCOC(=O)C1=C(C)Nc2nc3cc(Br)ccc3n2[C@H]1c1ccoc1 [(S)-16s]

target: T2, hA3AR (Homo sapiens, UniProt P0DMS8); assay: Radioligand binding competition, [3H]NECA, membranes from HeLa-A3 cells; details: 1 μM, [3H]NECA, human HeLa cells, n = 2
T2 construct: expressed in transfected cells; host or cells: HeLa (HeLa-A3) cell membranes
T2 sequence (P0DMS8 1-318): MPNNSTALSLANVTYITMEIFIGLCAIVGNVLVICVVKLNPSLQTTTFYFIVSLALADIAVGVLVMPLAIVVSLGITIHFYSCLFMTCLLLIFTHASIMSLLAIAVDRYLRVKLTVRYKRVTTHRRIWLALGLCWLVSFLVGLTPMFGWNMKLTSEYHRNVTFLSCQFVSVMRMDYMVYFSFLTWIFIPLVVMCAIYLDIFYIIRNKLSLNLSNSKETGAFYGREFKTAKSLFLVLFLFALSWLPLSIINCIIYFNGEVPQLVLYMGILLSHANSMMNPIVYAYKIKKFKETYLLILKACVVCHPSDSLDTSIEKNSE
In short: as §1

SMILES	% at 1 μM hA3 (percentage displacement of specific binding) [%]
CCOC(=O)C1=C(C)Nc2nc3cc(Cl)ccc3n2[C@@H]1c1cocn1 [(S)-18c]	6
CC1=C(C(=O)OC(C)C)[C@@H](c2ccco2)n2c(nc3ccccc32)N1 [(S)-ISAM-140]	4

The next lines start with the values.

% at 1 μM hA3 (percentage displacement of specific binding) [%]	SMILES
6	CC1=C(C(=O)OC(C)C)[C@@H](c2ccco2)n2c(nc3cc(Cl)ccc32)N1 [(S)-16j]
19	CC1=C(C(=O)OC(C)C)[C@H](c2ccoc2)n2c(nc3cc(Cl)ccc32)N1 [(S)-16l]
10	CCOC(=O)C1=C(C)Nc2nc3cc(Br)ccc3n2[C@H]1c1ccoc1 [(S)-16s]

target: T3, hA2BAR (Homo sapiens, UniProt P29275); assay: Radioligand binding competition, [3H]DPCPX, membranes from HEK-293-A2B cells; details: 1 μM, [3H]DPCPX, human HEK-293 cells, n = 2
T3 construct: host or cells: HEK-293 (HEK-293-A2B) cell membranes
T3 sequence (P29275 1-332): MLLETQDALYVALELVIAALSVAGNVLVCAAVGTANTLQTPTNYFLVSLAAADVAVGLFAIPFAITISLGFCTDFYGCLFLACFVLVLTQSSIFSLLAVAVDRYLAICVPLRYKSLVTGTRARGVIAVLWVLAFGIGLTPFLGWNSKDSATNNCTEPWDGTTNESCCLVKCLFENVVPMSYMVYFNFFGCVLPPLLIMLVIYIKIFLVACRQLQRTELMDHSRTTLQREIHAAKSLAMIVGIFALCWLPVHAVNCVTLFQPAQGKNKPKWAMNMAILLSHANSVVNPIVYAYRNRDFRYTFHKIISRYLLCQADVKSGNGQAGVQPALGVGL
In short: as §1

% at 1 μM hA2B (percentage displacement of specific binding) [%]	SMILES
53	CC1=C(C(=O)OC(C)C)[C@H](c2ccoc2)n2c(nc3cc(Cl)ccc32)N1 [(S)-16l]
34	CCOC(=O)C1=C(C)Nc2nc3cc(Br)ccc3n2[C@H]1c1ccoc1 [(S)-16s]

same assay, conditions: displacement of specific [3H]DPCPX binding in human HEK-293 cells, n = 3

Ki hA2B	SMILES
sub-nanomolar	CC1=C(C(=O)OC(C)C)[C@@H](c2ccco2)n2c(nc3ccccc32)N1 [(S)-ISAM-140]

same assay, conditions: displacement of specific [3H]DPCPX binding in human HEK-293 cells, n = 3; read-out: Ki hA2B

Ki [nM]	SMILES
2.04 ± 0.2	CC1=C(C(=O)OC(C)C)[C@@H](c2ccco2)n2c(nc3cc(Cl)ccc32)N1 [(S)-16j]
3.39 ± 0.2	CCOC(=O)C1=C(C)Nc2nc3cc(Cl)ccc3n2[C@@H]1c1cocn1 [(S)-18c]
0.89 ± 0.2	CC1=C(C(=O)OC(C)C)[C@@H](c2ccco2)n2c(nc3ccccc32)N1 [(S)-ISAM-140]

target: T4, hA2AAR (Homo sapiens, UniProt P29274); assay: Radioligand binding competition, [3H]ZM241385, membranes from HeLa-A2A cells; details: 1 μM, [3H]ZM241385, human HeLa cells, n = 2
T4 construct: expressed in transfected cells; host or cells: HeLa (HeLa-A2A) cell membranes
T4 sequence (P29274 whole entry): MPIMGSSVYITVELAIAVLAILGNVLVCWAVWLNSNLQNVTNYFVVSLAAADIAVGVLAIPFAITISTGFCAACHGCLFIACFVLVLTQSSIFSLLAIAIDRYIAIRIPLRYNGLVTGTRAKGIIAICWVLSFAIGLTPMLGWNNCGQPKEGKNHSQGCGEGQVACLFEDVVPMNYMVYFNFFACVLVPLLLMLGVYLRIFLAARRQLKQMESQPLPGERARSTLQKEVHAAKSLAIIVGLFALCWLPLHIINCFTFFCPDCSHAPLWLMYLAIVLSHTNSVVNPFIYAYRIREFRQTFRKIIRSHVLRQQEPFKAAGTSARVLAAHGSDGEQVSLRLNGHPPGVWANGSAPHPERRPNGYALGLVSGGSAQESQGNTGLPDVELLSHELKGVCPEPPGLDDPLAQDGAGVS
In short: as §1

SMILES	% at 1 μM hA2A (percentage displacement of specific binding) [%]
CCOC(=O)C1=C(C)Nc2nc3cc(Cl)ccc3n2[C@@H]1c1cocn1 [(S)-18c]	17
CC1=C(C(=O)OC(C)C)[C@@H](c2ccco2)n2c(nc3ccccc32)N1 [(S)-ISAM-140]	12

Now from value to compound:

% at 1 μM hA2A (percentage displacement of specific binding) [%]	SMILES
19	CC1=C(C(=O)OC(C)C)[C@@H](c2ccco2)n2c(nc3cc(Cl)ccc32)N1 [(S)-16j]
25	CC1=C(C(=O)OC(C)C)[C@H](c2ccoc2)n2c(nc3cc(Cl)ccc32)N1 [(S)-16l]
16	CCOC(=O)C1=C(C)Nc2nc3cc(Br)ccc3n2[C@H]1c1ccoc1 [(S)-16s]
